“Also recorded” adds a separate entry of the source.
Assays:
Type in all cases: cell-based
[1] = system: Proteus vulgaris ATCC 12454; assay: microbroth dilution antimicrobial assay, Proteus vulgaris ATCC 12454
Text: (§1) α-Methylation of N-pamitoyltyrosines confers antimicrobial activity. Compound (1) was initially screened for antimicrobial activity against the following panel of pathogenic bacteria and fungi in Table 1 in microbroth dilution assays: methicillin-resistant Staphylococcus aureus (MRSA), Staphylococcus warneri, vancomycin-resistant Enterococcus faecium (VRE), Pseudomonas aeruginosa, Proteus vulgaris and Candida albicans. […]
(§2) Evaluation of antimicrobial activity and cytotoxicity. […] Antimicrobial activity of 1-4 was evaluated against all five clinical Enterococcus isolates in addition to methicillin-resistant Staphylococcus aureus ATCC 33591 (MRSA), S. warneri ATCC 17917, vancomycin-resistant Enterococcus faecium EF379 (VRE), Pseudomonas aeruginosa ATCC 14210, Proteus vulgaris ATCC 12454 and Candida albicans ATCC 14035. All testing was carried out in triplicate according to the Clinical Laboratory Standards Institute testing standards in a 96-well plate microbroth dilution assay as previously described.^14 Optical density was measured using a Thermo Scientific Varioskan Flash plate reader at 600 nm, recording at time zero and then again after incubation for 22 h (37° C.) to determine percent growth inhibition. […] For both antimicrobial and cytotoxicity data, growth inhibition was expressed as a percentage and plotted against the logarithm of concentration.

Enterococcus hirae 17446 = assay: microbroth dilution antimicrobial assay, E. hirae 17446; conditions: for IC50: Enterococcus hirae 17446, microbroth dilution, 22 h, 37° C., triplicate, read-out: IC50 of N-Acyltyrosines
Protocol: (§3) To test the proposed structure-activity relationship (SAR), a structural analogue compound (2) of compound (1) was synthesized that lacks an a-methyl substituent, and compound (2) was tested for antimicrobial activity in parallel with compound (1). Analogues (3) and (4) were also synthesized and assayed to further support a potential SAR involving the O-methyl substituent (FIG. 16-21). To thoroughly characterize the anti-Enterococcal activity of compounds (1)-(4), five veterinary clinical isolates from veterinary cases (in addition to VRE EF379) were obtained for this study. All five clinical isolates were classified as vancomycin-susceptible.
(§4) Evaluation of antimicrobial activity and cytotoxicity. The following five Enterococcus spp. were isolated from clinical specimens at the Atlantic Veterinary College (AVC) by the AVC Diagnostic Services Bacteriology Laboratory. Isolates were identified using the Bruker microflex LT MALDI-TOF with MBT Compass version 4.179. The direct colony transfer method was used with the Bruker Matrix HCCA (α-cyano-4-hydroxycinnamic acid) overlay, following manufacturer guidelines. Score values between 2.00 and 3.00 were considered high confidence identifications. The following isolates (with source species) were identified: E. faecium 15337 (feline), E. faecalis 16371 (canine), E. gallinarum 20993 (erinaceine), E. casseliflavus 15984 (equine) and E. hirae 17446 (avine). Antimicrobial activity of 1-4 was evaluated against all five clinical Enterococcus isolates in addition to methicillin-resistant Staphylococcus aureus ATCC 33591 (MRSA), S. warneri ATCC 17917, vancomycin-resistant Enterococcus faecium EF379 (VRE), Pseudomonas aeruginosa ATCC 14210, Proteus vulgaris ATCC 12454 and Candida albicans ATCC 14035. All testing was carried out in triplicate according to the Clinical Laboratory Standards Institute testing standards in a 96-well plate microbroth dilution assay as previously described.^14 Optical density was measured using a Thermo Scientific Varioskan Flash plate reader at 600 nm, recording at time zero and then again after incubation for 22 h (37° C.) to determine percent growth inhibition. Cytotoxicity was evaluated against Vero kidney cell line from African green monkey (Cercopithecus aethiops), MCF7 human breast adenocarcinoma cells (ATCC HTB-22), human breast adenocarcinoma cells (ATCC HTB-26) and HCT-116 human colorectal carcinoma cells (ATCC CCL-247). All assays were carried out as described previously.^14 Fluorescence was measured using a Thermo Scientific Varioskan Flash plate reader at 560/12 excitation, 590 nm emission both at time zero and 4 h after alamarBlue (Invitrogen) addition. For both antimicrobial and cytotoxicity data, growth inhibition was expressed as a percentage and plotted against the logarithm of concentration.

[2] = system: Enterococcus faecium 15337; assay: microbroth dilution antimicrobial assay, E. faecium 15337; conditions: for IC50: Enterococcus faecium 15337, microbroth dilution, 22 h, 37° C., triplicate, read-out: IC50 of N-Acyltyrosines
Protocol: as §3, §4

[3] = system: Enterococcus faecalis 16371; assay: microbroth dilution antimicrobial assay, E. faecalis 16371; conditions: for IC50: Enterococcus faecalis 16371, microbroth dilution, 22 h, 37° C., triplicate, read-out: IC50 of N-Acyltyrosines
Protocol: as §3, §4

[4] = system: Enterococcus casseliflavus 15984; assay: microbroth dilution antimicrobial assay, E. casseliflavus 15984; conditions: for IC50: Enterococcus casseliflavus 15984, microbroth dilution, 22 h, 37° C., triplicate, read-out: IC50 of N-Acyltyrosines
Protocol: as §3, §4

[5] = system: Pseudomonas aeruginosa ATCC 14210; assay: microbroth dilution antimicrobial assay, P. aeruginosa ATCC 14210
Text: as §1, §2

[6] = system: Enterococcus gallinarum 20993; assay: microbroth dilution antimicrobial assay, E. gallinarum 20993; conditions: for IC50: Enterococcus gallinarum 20993, microbroth dilution, 22 h, 37° C., triplicate, read-out: IC50 of N-Acyltyrosines
Protocol: as §3, §4

[7] = system: Staphylococcus aureus ATCC 33591 (MRSA); assay: microbroth dilution antimicrobial assay, S. aureus ATCC 33591 (MRSA); conditions: for growth inhibition (in words): S. aureus (MRSA); for growth inhibition (in words) / IC50: microbroth dilution; for IC50: Staphylococcus aureus ATCC 33591 (MRSA), 22 h, 37° C., triplicate, read-out: IC50 of N-Acyltyrosines; for growth at the highest concentration tested (in words): 128 μg/mL
Text: (§5) α-Methylation of N-pamitoyltyrosines confers antimicrobial activity. Compound (1) was initially screened for antimicrobial activity against the following panel of pathogenic bacteria and fungi in Table 1 in microbroth dilution assays: methicillin-resistant Staphylococcus aureus (MRSA), Staphylococcus warneri, vancomycin-resistant Enterococcus faecium (VRE), Pseudomonas aeruginosa, Proteus vulgaris and Candida albicans. […] The inventors were aware of no reports on anti-Staphylococcus activity of N-acyltyrosines or on anti-Enterococcal activity of any N-acylated amino acid; thus, it was hypothesized that the α-methyl substituent of compound (1) may be a key component of the antimicrobial pharmacophore of compound 1, may confer Staphylococcus inhibitory activity to N-acyltyrosines, and/or perhaps may play a role in their Enterococcus activity.
as §4

[8] = system: Candida albicans ATCC 14035; assay: microbroth dilution antimicrobial assay, Candida albicans ATCC 14035
Text: as §1, §2

[9] = system: Staphylococcus warneri ATCC 17917; assay: microbroth dilution antimicrobial assay, S. warneri ATCC 17917; conditions: for IC50: ATCC17917, Staphylococcus warneri ATCC 17917, 22 h, 37° C., triplicate, read-out: IC50 of N-Acyltyrosines; for IC50 / growth inhibition (in words): microbroth dilution; for growth at the highest concentration tested (in words): 128 μg/mL
Text: as §5, §4

[10] = system: Enterococcus faecium EF379 (VRE); assay: microbroth dilution antimicrobial assay, E. faecium EF379 (VRE); conditions: for IC50: Enterococcus faecium EF379 (VRE), 22 h, 37° C., triplicate, read-out: IC50 of N-Acyltyrosines
Text: as §5, §3, §4

| Compound | IC50 (Enterococcus hirae 17446) [µM] | IC50 [2] [µM] | IC50 [3] [µM] | IC50 [4] [µM] | IC50 [6] [µM] | growth inhibition (in words) [7] | IC50 [7] [µM] | IC50 [9] [µM] | growth inhibition (in words) ([9]; S. warneri) | IC50 ([10]; microbroth dilution) [µM] | growth at the highest concentration tested (in words) ([7]; S. aureus) | growth at the highest concentration tested (in words) ([9]; S. warneri) | further results |
| --- | --- | --- | --- | --- | --- | --- | --- | --- | --- | --- | --- | --- | --- |
| CCCCCCCCCCCCCCCC(=O)N[C@@](C)(Cc1ccc(OC)cc1)C(=O)O [Compound 1, N-Palmitoyl-α,O-dimethyl-L-tyrosine] | 4.1 | 7.2 | 7.4 | 3.1 | 4 | Growth inhibition was observed; also recorded: inhibited | > 286 | > 286 | Growth inhibition was observed | 1.6 |  |  | IC50 ([1]; ATCC12454, Proteus vulgaris ATCC 12454, microbroth dilution, read-out: IC50 of N-Acyltyrosines): > 286 µM; antimicrobial activity (in words) ([1]; Gram-negative pathogen Proteus vulgaris, initial screen): no activity was observed; IC50 ([5]; ATCC14210, Pseudomonas aeruginosa ATCC 14210, microbroth dilution, read-out: IC50 of N-Acyltyrosines): > 286 µM; antimicrobial activity (in words) ([5]; Gram-negative pathogen Pseudomonas aeruginosa, initial screen): no activity was observed; Incomplete growth inhibition ([7]; S. aureus, 8-128 μg/mL (footnote b)): < 75%; concentration at which maximum inhibition was achieved ([7]; S. aureus, inhibition incomplete, plateaued at higher concentrations (FIG. 25)): 8 µg/mL; IC50 ([8]; ATCC14035, Candida albicans ATCC 14035, microbroth dilution, read-out: IC50 of N-Acyltyrosines): > 286 µM; antimicrobial activity (in words) ([8]; fungal pathogen Candida albicans, initial screen): no activity was observed; Incomplete growth inhibition ([9]; S. warneri, from 2-64 μg/mL (footnote b)): < 50%; growth inhibition (in words) ([10]; VRE, initial screen, microbroth dilution): Growth inhibition was observed |
| CCCCCCCCCCCCCCCC(=O)N[C@@H](Cc1ccc(OC)cc1)C(=O)O [Compound 2, N-Palmitoyl-O-methyl-L-tyrosine] | 3.6 | 10.5 | > 295 | 10.7 | 71.5 |  | > 295 | > 295 |  | 13.3 | unaffected | unaffected | Enterococcus inhibitory activity (in words) ([3]; E. faecalis 16371, FIG. 24 legend): inactive |
| CCCCCCCCCCCCCCCC(=O)N[C@@](C)(Cc1ccc(O)cc1)C(=O)O [Compound 3, N-Palmitoyl-α-methyl-L-tyrosine] | 4.6 | 9.9 | 9.2 to 18.4 | 9 | 4.6 | inhibited | 9.2 to 18.4 | 9.2 to 18.4 | inhibited | 5.3 |  |  |  |
| CCCCCCCCCCCCCCCC(=O)N[C@@H](Cc1ccc(O)cc1)C(=O)O [Compound 4, N-Palmitoyl-L-tyrosine] | 5.6 | > 305 | 77.1 | 32.1 | 146 |  | > 305 | > 305 |  | 10.7 | unaffected | unaffected | Enterococcus inhibitory activity (in words) ([2]; E. faecium 15337, FIG. 24 legend): inactive; Incomplete growth inhibition ([2]; E. faecium 15337, at all tested concentrations (footnote b)): < 50 |
| CO[C@H]1/C=C/O[C@@]2(C)Oc3c(C)c(O)c4c(O)c(c(/C=N/N5CCN(C)CC5)c(O)c4c3C2=O)NC(=O)/C(C)=C\C=C\[C@H](C)[C@H](O)[C@@H](C)[C@@H](O)[C@@H](C)[C@H](OC(C)=O)[C@@H]1C [RIF, reference compound] |  |  |  |  |  |  |  |  |  |  |  |  | IC50 of positive control antibiotic (Enterococcus hirae 17446; E. hirae 17446, positive control): < 0.5 µg/mL; IC50 of positive control antibiotic ([2]; E. faecium 15337, positive control): > 16 µg/mL; IC50 of positive control antibiotic ([3]; E. faecalis 16371, positive control): > 8 µg/mL; IC50 of positive control antibiotic ([4]; E. casseliflavus 15984, positive control): 0.9 µg/mL; IC50 of positive control antibiotic ([6]; E. gallinarum 20993, positive control): 3 µg/mL; IC50 of positive control antibiotic ([10]; E. faecium EF379, positive control): 4 µg/mL |
| CN[C@H](CC(C)C)C(=O)N[C@H]1C(=O)N[C@@H](CC(N)=O)C(=O)N[C@H]2C(=O)N[C@H]3C(=O)N[C@H](C(=O)N[C@H](C(=O)O)c4cc(O)cc(O)c4-c4cc3ccc4O)[C@H](O)c3ccc(c(Cl)c3)Oc3cc2cc(c3O[C@@H]2O[C@H](CO)[C@@H](O)[C@H](O)[C@H]2O[C@H]2C[C@](C)(N)[C@H](O)[C@H](C)O2)Oc2ccc(cc2Cl)[C@H]1O [VAN, reference compound] |  |  |  |  |  |  |  |  |  |  |  |  | IC50 of positive control antibiotic ([7]; S. aureus ATCC 33591, positive control): 2 µg/mL; IC50 of positive control antibiotic ([9]; S. warneri, positive control): < 0.125 µg/mL |

From US20220371989A1, “N-ACYL-TYROSINE DERIVATIVES AND USES THEREOF” (Sederma, priority 2019, published 2022)
